Reference: US20250057979A1, “CARDIAC CALCIUM HANDLING MACHINERY REMODELED IN FRIEDREICH'S ATAXIA” (University of South Florida, priority 2023, published 2025)

Tests used:
[1] = tested on: ventricular myocytes from FXN-KO and FXN-WT mice; experiment: Oxygen consumption rate (OCR), XFp24 Cell Mito Stress Test (Agilent Seahorse); format: cell-based, mouse; conditions: isolated ventricular myocytes
Procedure: To investigate how mitochondrial respiration was affected in FA, OCR was measured herein using XFp24 Cell Mito Stress Test (Catalog #B05423; Agilent Seahorse). One day prior to the experiment, XFp24 cell culture plates were coated with gelatin/fibronectin at 37° C. Ventricular myocytes were enzymatically isolated from FXN-KO and FXN-WT mice. We dissociated myocytes in DMEM medium (Seahorse Bioscience), supplemented with 1 mM pyruvate, 2 mM glutamine, and 10 mM D-glucose. We plated 2500 myocytes/well into 24 well seahorse plates for 10 min. OCR were measured using the Seahorse Bioscience XF24 Extracellular Flux Analyzer (Seahorse Bioscience). Measurements were taken as the cells were incubated sequentially under four conditions: 1) basal levels were measured with no additives; 2) oligomycin (1.5 μM) was added to inhibit ATP synthase and OXPHOS, showing glycolysis alone reversibly; 3) FCCP (1 μM), a mitochondrial uncoupler, was added to induce maximal respiration; and 4) Antimycin A (10 μM), a Complex III inhibitor, was added to obtain non-mitochondrial oxygen consumption background. The Seahorse software was used to extract the results and plotted them using GraphPad Prism. OCR was normalized to cell number per well.

[2] = tested on: left ventricular myocytes from FXN-WT and FXN-KO; conditions: 10 μM FCCP added after 15 min of time-dependent recording over 22 min; FXN-WT and FXN-KO cardiomyocytes
Procedure: The mitochondrial membrane potential (ΔΨm) was measured using tetramethyl rhodamine methyl ester (TMRM) dye. Left ventricular myocytes from the FXN-WT and FXN-KO were plated in an eight-well confocal chamber (LAB-TEK, DK, Denmark; Catalog #155409,) for 20 minutes, and cells were incubated with TMRM (10 nmol/L; Invitrogen; Catalog #T668) for 20 minutes in Tyrode solution at 37° C. and washed two times with Tyrode solution. After incubation with the dye, live cells were imaged for 20 min in 2 min intervals on a confocal microscope (Olympus-IX) using a 63X-oil objective. […] Confocal settings were identical for FXN-WT and the FXN-KO myocytes.

With `N#CC(C#N)=NNc1ccc(OC(F)(F)F)cc1` [FCCP, carbonyl cyanide 4-(trifluoromethoxy) phenylhydrazone] the “OCR after injection of FCCP” value ([1]; FCCP 1 μM) was “increased OCR to maximal levels” and the “ΔΨm (TMRM fluorescence) after addition of FCCP” value [2] was “decreased”.
With `CC[C@H]1/C=C/C=C/C[C@@H](C)[C@H](O)[C@@](C)(O)C(=O)[C@@H](C)[C@H](O)[C@@H](C)C(=O)[C@@H](C)[C@H](O)[C@@H](C)/C=C/C(=O)O[C@@H]2[C@H](C)[C@H](CC1)O[C@]1(CC[C@H](C)[C@H](C[C@@H](C)O)O1)[C@H]2C` [Oligomycin, oligomycin] the “OCR after injection of oligomycin” value ([1]; oligomycin 1.5 μM) was “decreased”.
With Antimycin A the “OCR after injection of antimycin A” value ([1]; Antimycin A 10 μM) was “reduced”.
